According to patent publication US7368454B2, “(3,4-dihydro-quinazolin-2-yl)-aryl-amines” (Hoffmann-La Roche Inc., priority 2005, dated 2008):

biological target: T1, recombinant human 5-HT5A receptor (Homo sapiens, UniProt P47898); assay: [3H]LSD radioligand binding assay; conditions: [3H]LSD approx. 1 nM; membranes from HEK-EBNA cells transiently expressing 5-HT5A; SPA; Ki from IC50 by Cheng-Prussoff equation
T1 construct: expressed in transfected cells; host or cells: Human Embryonic Kidney-EBNA (HEK-EBNA) cells, transient expression, membranes
T1 sequence (P47898 whole entry): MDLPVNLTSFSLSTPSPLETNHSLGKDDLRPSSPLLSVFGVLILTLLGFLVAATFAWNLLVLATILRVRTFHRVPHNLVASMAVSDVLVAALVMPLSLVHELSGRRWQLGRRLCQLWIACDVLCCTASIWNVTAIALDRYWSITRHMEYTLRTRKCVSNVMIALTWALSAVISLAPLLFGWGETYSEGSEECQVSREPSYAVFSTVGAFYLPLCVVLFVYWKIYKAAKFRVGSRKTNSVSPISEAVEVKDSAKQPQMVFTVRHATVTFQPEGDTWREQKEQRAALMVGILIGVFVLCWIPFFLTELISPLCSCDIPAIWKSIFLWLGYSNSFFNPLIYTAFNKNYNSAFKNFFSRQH
Experimental: A [^3H]LSD radioligand binding assay was used to determine the affinity of the compounds for the recombinant human 5-HT5A receptor, in membranes from transiently (cDNA) expressed 5-HT 5A receptors in Human Embryonic Kidney-EBNA (HEK-EBNA) cells. Assay buffer consisted of Tris (50 mM) buffer containing 1 mM EGTA, 10 mM MgCl2 (pH 7.4) and 10 μM pargyline. The binding assay was carried out in 96-well-plates in the presence of [^3H]LSD (approximately 1 nM), approximately 2 μg/well of membrane protein, and 0.5 mg of Ysi-poly-1-lysine SPA beads in a final volume of 200 μl of buffer. Non-specific binding was defined using methiothepin 2 μM. Compounds were tested at 10 concentrations. All assays were conducted in duplicate and repeated at least two times. Assay plates were incubated for 120 min at room temperature before centrifugation. Bound ligand was determined using a Packard Topcount scintillation counter. IC50 values were calculated using a non-linear curve fitting program and Ki values calculated using the Cheng-Prussoff equation.

Row | Ki [nM] | SMILES
1 | 118 | FC(F)(F)c1cccc(NC2=Nc3cccc(Cl)c3CN2)c1 [Example 3, (5-Chloro-3,4-dihydro-quinazolin-2-yl)-(3-trifluoromethyl-phenyl)-amine]
2 | 155 | c1ccc2c(c1)CNC(Nc1cccc3ccccc13)=N2 [Example 6, (3,4-Dihydro-quinazolin-2-yl)-naphthalen-1-yl-amine]
3 | 143 | Cc1cccc(NC2=Nc3ccccc3CN2)c1 [Example 4, (3,4-Dihydro-quinazolin-2-yl)-m-tolyl-amine]
4 | 91 | FC(F)(F)c1cccc(NC2=Nc3ccccc3CN2)c1 [Example 2, (3,4-Dihydro-quinazolin-2-yl)-(3-trifluoromethyl-phenyl)-amine]
5 | 300 | Clc1cccc(NC2=Nc3ccccc3CN2)c1 [Example 10, (3-Chloro-phenyl)-(3,4-dihydro-quinazolin-2-yl)-amine]
6 | 85 | Cc1cccc2c1CNC(Nc1cccc(C(F)(F)F)c1)=N2 [Example 1, (5-Methyl-3,4-dihydro-quinazolin-2-yl)-(3-trifluoromethyl-phenyl)-amine]
7 | 990 | Clc1ccc(NC2=Nc3ccccc3CN2)cc1 [Example 15, (4-Chloro-phenyl)-(3,4-dihydro-quinazolin-2-yl)-amine]
8 | 149 | c1ccc2c(c1)CNC(Nc1ccc3c(c1)CCC3)=N2 [Example 5, (3,4-Dihydro-quinazolin-2-yl)-indan-5-yl-amine]
9 | 1000 | Fc1ccccc1NC1=Nc2ccccc2CN1 [Example 16, (3,4-Dihydro-quinazolin-2-yl)-(2-fluoro-phenyl)-amine; hydriodide]
